Experiments:
Assay type in all cases: cell-based
[1] = test system: resistant E. coli strain; assay: Electrical fluctuation based susceptibility test of immobilized bacteria in human urine/broth, resistant strain; conditions: about 50 bacteria, urine/broth/antibiotic mixture, antibiotic concentration above MIC, FIG. 13B/13C
Method: (§1) After the bacteria are trapped, for the Electrical Fluctuation based Susceptibility Test 430, at 432, the system measures the fluctuations of the electrical signals (e.g., voltage or current) to determine a baseline RMS signal level (e.g., the RMS level determined as function of the measured signal fluctuations). Next, at 434, the antibiotic is added to the solution, either via one of the reservoirs 110 or directly to the microchannel 120. Next, at 436, the (RMS) fluctuations of the electrical signal (e.g., voltage or current) are measured again and an RMS level can be determined as a function of the measured signal fluctuations, and, at 440, the RMS level of the fluctuations of the electrical signal can be compared to the baseline RMS signal level. If the RMS level of the fluctuations of the electrical signal is greater than the baseline signal RMS level, then the bacteria can be considered resistant to the antibiotic at 442. If the RMS level of the fluctuations of the electrical signal is not greater than the baseline RMS signal level, the bacteria can be considered susceptible to attack by the antibiotic at 444.
(§2) FIGS. 13A, 13B, and 13C show the results of antibiotic susceptibility studies in human urine. In this example, two strains of E. coli are used, with one being resistant to the administered antibiotic, nalidixic acid. […]

[2] = test system: susceptible E. coli strain; assay: Electrical fluctuation based susceptibility test of immobilized bacteria in human urine/broth, susceptible strain; conditions: about 50 bacteria, urine/broth/antibiotic mixture, antibiotic concentration above MIC, FIG. 13A/13C
Method: as §1, §2

[3] = test system: S. epidermidis; assay: Mean resistance based susceptibility test in the microchannel (bacterial growth); conditions: broth/Vancomycin mixture, vancomycin 4 μg/ml, t=0 to 4 hrs
Method: After the bacteria are trapped, for the Mean Resistance based Susceptibility Test 410, at 412, the baseline mean (average or time-averaged measured resistance through the channel) resistance can be measured for a predefined period of time. The baseline mean can be determined as a function (e.g., the average or time-average) of the measured resistance through the channel for two or more points in time. After the baseline mean resistance is determined, at 414, the antibiotic is added to the solution, either via one of the reservoirs 110 or directly to the microchannel 120 and, at 416, the solution containing the bacteria and the antibiotic is allowed to incubate for a predefined period of time (e.g., 1-3 hours, although shorter or longer periods can be used). After the expiration of a predefined period of time, at 418, the mean resistance is determined (e.g., as a function of the measured resistance through the channel for two or more points in time) and, at 420, the mean resistance is compared to the baseline mean resistance. […]
In the experiment shown in FIGS. 14, 15 and 16, the susceptibility of S. epidermidis to Vancomycin was tested using the mean resistance based approach shown in the flowchart in FIG. 4. As discussed above, S. epidermidis is non-motile and readily settles in the microchannel. […]

`CCn1cc(C(=O)O)c(=O)c2ccc(C)nc21` [nalidixic acid] was tested, and the “voltage fluctuations (RMS amplitude) over time after antibiotic is administered” value [1] was “do not show significant changes over time” and the “voltage fluctuations (RMS amplitude) over time after antibiotic is administered” value [2] was “decay rather quickly”.
In the case of `CN[C@H](CC(C)C)C(=O)N[C@H]1C(=O)N[C@@H](CC(N)=O)C(=O)N[C@H]2C(=O)N[C@H]3C(=O)N[C@H](C(=O)N[C@H](C(=O)O)c4cc(O)cc(O)c4-c4cc3ccc4O)[C@H](O)c3ccc(c(Cl)c3)Oc3cc2cc(c3O[C@@H]2O[C@H](CO)[C@@H](O)[C@H](O)[C@H]2O[C@H]2C[C@](C)(N)[C@H](O)[C@H](C)O2)Oc2ccc(cc2Cl)[C@H]1O` [Vancomycin], the “population size of bacteria in the antibiotic solution” value [3] is reported as “the population size stays the same” and the “mean resistance value (change over time)” value ([3]; FIG. 16) is reported as “does not change noticeably”.
